Columns and labels:
MCII cells = assay: MCII Mast Cell Toxicity Assay (XTT); format: cell-based, mouse; conditions: sensitized MCII cells, 4-12 hours, 37° C., read-out: MCII Mast Cell Toxicity IC50
Text: MCII Mast Cell Toxicity Assay
This toxicity assay is run in parallel with the MCII mast cell LTC4 assay and serves as an indicator of compound effects on the viability and metabolic activity of the MCII cells. This "toxicity" assay is based on the ability of dehydrogenase enzymes present in viable metabolically active cells to bioreduce the tetrazolium sale XTT yielding a colored, water soluble formazan product. (see, Roehm et al.) "An improved colorimetric assay for cell proliferation and viability utilizing the tetrazolium salt XTT. J. Immunol. Methods 142:257-65 (1991).
A duplicate polystyrene 96-well tissue culture plate (Costar) is set up with sensitized MCII cells, EM95 ascites, media and dilutions of the test compound as described above. The complete media is supplemented with concanavalin A induced culture supernatants from the mouse helper T cell clone D10.G4, as a source of mast cell growth factors.
Wells of the toxicity assay plate are pulsed with 25 μl XTT (Sigma) plus phenazine methosulfate (Aldrich) giving a final concentration of 0.2 mg/ml XTT and 25 μM phenazine methosulfate. The plates are incubated at 37° C. in 10% CO2 for 4-12 hours and then production of the XTT formazan product determined by measuring the optical density of the wells at a wavelength of 450 nm. The positive control on each plate is stimulated MCII cells with dimethyl sulfoxide vehicle alone and the negative control is the same reaction mixture without cells. The background negative control value is subtracted from experimental and positive control values and the data are reported as percent of positive control.

[1] = test system: TxB2 production in plasma-depleted blood; assay: Inhibition of Eicosanoid Production by Plasma-Depleted Blood: TxB2; format: cell-based; conditions: Homo sapiens, read-out: Plasma DPLTD Blood TxB2 IC50
Description: Inhibition of Eicosanoid Production by Plasma-Depleted Blood
Compounds are evaluated for their ability to inhibit production of leukotriene B4 (LTB4) and thromboxane B2 (TxB2) upon stimulation of human plasma-depleted blood with formyl-methionyl-leucyl-phenylalanine (FMLP) and thrombin. LTB4 is produced by neutrophils and TxB2 by platelets stimulated at their respective receptors with FMLP and thrombin. The assay is carried out in 1 ml deep well polypropylene 96-well plates (Beckman). For the test, ten ml of blood is collected in EDTA at a final concentration of 1.5 mg/ml. Then, 40 ml glucose phosphate buffer containing 0.1% gelatin is added and the suspension centrifuged at 900 g for 10 minutes at room temperature. The supernatant is discarded and the cells washed once with 50 ml buffer before resuspending them in 50 ml Krebs-Ringers-Henseleit Buffer containing 0.1% gelatin, 1 mM CaCl2, 1.1 mM MgCl2 (KRH buffer). Working solutions of test compounds are made by dissolving the material in DMSO at 10 mM and diluting with appropriate amounts of KRH buffer. An agonist solution is made containing 1 μM FMLP (sigma) and 10 units/ml of thrombin in KRH buffer (Enzyme Research Labs). […] The amount of LTB4 and TxB2 produced is determined by the use of a competitive enzyme immunoassay using commercial reagents from Cayman Chemical.

Oc1ccc(-c2cc3ccc(O)cc3s2)cc1 [Compound B]
CC50 (MCII cells): < 10 µM

O=C(c1ccc(O)cc1)c1c(-c2ccc(O)cc2)sc2cc(O)ccc12 [Compound D]
IC50 [1]: > 9.8 µM

O=C(c1ccc(-c2ccccc2)cc1)c1c(-c2ccc(O)cc2)sc2cc(O)ccc12 [Example 1, 6-hydroxyphenyl-2-(p-hydroxyphenyl)-(benzo(B)thien-3-yl)(p-phenyl)phenyl methanone]
CC50 (MCII cells): > 10 µM

O=C(c1cccc2ccccc12)c1c(-c2ccc(O)cc2)sc2cc(O)ccc12 [Example 2, 6-hydroxyphenyl-2-(p-hydroxyphenyl)-(benzo(B)thien-3-yl) (α-napthyl)methanone]
CC50 (MCII cells): > 10 µM

O=C(c1ccc2ccccc2c1)c1c(-c2ccc(O)cc2)sc2cc(O)ccc12 [Example 3, 6-hydroxyphenyl-2-(p-hydroxyphenyl)-(benzo(B)thien-3-yl)(β-napthyl)methanone]
CC50 (MCII cells): > 10 µM
